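Step 1: Grow cells in 96-well plates. Step 2: Expose to compound for 48 hours at 5 concentrations. Step 3: Interpolate endpoints linearly; if unreached, use highest concentration. GI50 = concentration required for 50% inhibition of growth.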 Activity calls are given as the source filed them. Cut-off read from the data, not from the text of the source: active = GI50 up to about 1.1 µM and inactive = higher.
Columns and labels:
Assay in all cases: growth of human tumour cells (NCI), 48 h
SNB-19 = tested on: SNB-19
ACHN = tested on: ACHN
T47D = tested on: T47D
Hs-578T = tested on: Hs-578T
MDA-MB-231 = tested on: MDA-MB-231
MCF7 = tested on: MCF7
TK-10 = tested on: TK-10
RXF 393 = tested on: RXF 393
MOLT-4 = tested on: MOLT-4
LOX IMVI = tested on: LOX IMVI
HOP-92 = tested on: HOP-92
COLO 205 = tested on: COLO 205
U-251 = tested on: U-251
KM12 = tested on: KM12
SK-MEL-28 = tested on: SK-MEL-28
SK-MEL-5 = tested on: SK-MEL-5
DU-145 = tested on: DU-145
SNB-75 = tested on: SNB-75
A498 = tested on: A498
HCT-15 = tested on: HCT-15

## CNC(=O)OCc1c(COC(=O)NC)c(C)n(-c2ccc(Br)cc2)c1C
SNB-19
  GI50: 18.7 µM (inactive)
ACHN
  GI50: 3.26 µM (inactive)
T47D
  GI50: 10.2 µM (inactive)
Hs-578T
  GI50: 16.2 µM (inactive)
MDA-MB-231
  GI50: 13.9 µM (inactive)
MCF7
  GI50: 11.3 µM (inactive)
TK-10
  GI50: 11 µM (inactive)
RXF 393
  GI50: 5.37 µM (inactive)
MOLT-4
  GI50: 6.79 µM (inactive)
LOX IMVI
  GI50: 6.24 µM (inactive)
HOP-92
  GI50: 7.76 µM (inactive)
COLO 205
  GI50: 13.4 µM (inactive)
U-251
  GI50: 10.7 µM (inactive)
KM12
  GI50: 14.4 µM (inactive)
SK-MEL-28
  GI50: 16.4 µM (inactive)
SK-MEL-5
  GI50: 13.6 µM (inactive)
DU-145
  GI50: 14.3 µM (inactive)
SNB-75
  GI50: 4.17 µM (inactive)
A498
  GI50: 1.36 µM (inactive)
HCT-15
  GI50: 14 µM

## COc1ccc(/C=C2\C(=O)N(C3OC(COC(C)=O)C(OC(C)=O)C(OC(C)=O)C3OC(C)=O)c3ccccc3N=C2N)cc1 (stereo not given)
SNB-19
  GI50: 42.7 µM (inactive)
ACHN
  GI50: 38.5 µM (inactive)
T47D
  GI50: 14 µM (inactive)
Hs-578T
  GI50: 34.6 µM (inactive)
MDA-MB-231
  GI50: 43.5 µM (inactive)
MCF7
  GI50: 19.1 µM (inactive)
TK-10
  GI50: 34 µM (inactive)
RXF 393
  GI50: 21.8 µM (inactive)
MOLT-4
  GI50: 18.3 µM (inactive)
LOX IMVI
  GI50: 24.5 µM (inactive)
HOP-92
  GI50: 71.4 µM (inactive)
COLO 205
  GI50: 15.6 µM (inactive)
U-251
  GI50: 27.1 µM (inactive)
KM12
  GI50: 16.9 µM (inactive)
SK-MEL-28
  GI50: 23.9 µM (inactive)
SK-MEL-5
  GI50: 11.3 µM (inactive)
DU-145
  GI50: 25.7 µM (inactive)
SNB-75
  GI50: 23.2 µM (inactive)
A498
  GI50: 28.2 µM (inactive)
HCT-15
  GI50: 12.9 µM

## COC(=O)C1=C(C(=O)Nc2cccnc2Cl)N(c2ccc(OC)cc2[N+](=O)[O-])C(c2ccc(C)cc2)=CC1c1ccc(OC)cc1OC (stereo not given)
SNB-19
  GI50: 32.1 µM (inactive)
ACHN
  GI50: 19.1 µM (inactive)
T47D
  GI50: 10 µM (inactive)
Hs-578T
  GI50: 25.3 µM (inactive)
MDA-MB-231
  GI50: 17.9 µM (inactive)
MCF7
  GI50: 2.15 µM (inactive)
TK-10
  GI50: 20.7 µM (inactive)
RXF 393
  GI50: 3.13 µM (inactive)
MOLT-4
  GI50: 7.94 µM (inactive)
LOX IMVI
  GI50: 2.82 µM (inactive)
HOP-92
  GI50: 31.1 µM (inactive)
COLO 205
  GI50: 15.5 µM (inactive)
U-251
  GI50: 6.41 µM (inactive)
KM12
  GI50: 2.92 µM (inactive)
SK-MEL-28
  GI50: 59.6 µM (inactive)
SK-MEL-5
  GI50: 10 µM (inactive)
DU-145
  GI50: 23 µM (inactive)
SNB-75
  GI50: 14.2 µM (inactive)
A498
  GI50: 16.7 µM (inactive)
HCT-15
  GI50: 4.27 µM

## O=[N+]([O-])c1c(F)c(F)c2c(c1F)Nc1ccccc1S2
SNB-19
  GI50: 7.23 µM (inactive)
ACHN
  GI50: 15.7 µM (inactive)
T47D
  GI50: 3.03 µM (inactive)
Hs-578T
  GI50: 7.1 µM (inactive)
MDA-MB-231
  GI50: 2.27 µM (inactive)
MCF7
  GI50: 5 µM (inactive)
TK-10
  GI50: 23.8 µM (inactive)
RXF 393
  GI50: 2.25 µM (inactive)
MOLT-4
  GI50: 2.61 µM (inactive)
LOX IMVI
  GI50: 1.86 µM (inactive)
HOP-92
  GI50: 15.2 µM (inactive)
COLO 205
  GI50: 13.9 µM (inactive)
U-251
  GI50: 2.05 µM (inactive)
KM12
  GI50: 4.49 µM (inactive)
SK-MEL-28
  GI50: 2.51 µM (inactive)
SK-MEL-5
  GI50: 11.6 µM (inactive)
DU-145
  GI50: 4.06 µM (inactive)
SNB-75
  GI50: 17.3 µM (inactive)
A498
  GI50: 16.4 µM (inactive)
HCT-15
  GI50: 4.83 µM

## CC[C@@]1(O)C(=O)OCc2c1cc1n(c2=O)Cc2c-1nc1ccccc1c2/C=N\NC(=O)C1CCCN1 (stereo not given in full)
SNB-19
  GI50: < 0.0209 µM (active)
ACHN
  GI50: 0.0283 µM (active)
T47D
  GI50: 0.0135 µM (active)
Hs-578T
  GI50: 22.5 µM (inactive)
MDA-MB-231
  GI50: 14.7 µM (inactive)
MCF7
  GI50: < 0.0177 µM (active)
TK-10
  GI50: 19.4 µM (inactive)
RXF 393
  GI50: 0.364 µM (active)
MOLT-4
  GI50: 0.221 µM (active)
LOX IMVI
  GI50: 0.09 µM (active)
HOP-92
  GI50: 0.601 µM (active)
COLO 205
  GI50: 6.05 µM (inactive)
U-251
  GI50: 0.0362 µM (active)
KM12
  GI50: 3.11 µM (inactive)
SK-MEL-28
  GI50: 6.58 µM (inactive)
SK-MEL-5
  GI50: 0.238 µM (active)
DU-145
  GI50: 0.133 µM (active)
SNB-75
  GI50: 0.104 µM (active)
A498
  GI50: 0.435 µM (active)
HCT-15
  GI50: 1.31 µM

## Cn1c(=O)c2c(nc3sc4ccccc4c(=O)n32)n(C)c1=O
SNB-19
  GI50: > 100 µM (inactive)
ACHN
  GI50: > 100 µM (inactive)
T47D
  GI50: > 100 µM (inactive)
Hs-578T
  GI50: > 100 µM (inactive)
MDA-MB-231
  GI50: > 100 µM (inactive)
MCF7
  GI50: > 100 µM (inactive)
TK-10
  GI50: > 100 µM (inactive)
RXF 393
  GI50: > 100 µM (inactive)
MOLT-4
  GI50: > 100 µM (inactive)
LOX IMVI
  GI50: > 100 µM (inactive)
HOP-92
  GI50: > 100 µM (inactive)
COLO 205
  GI50: > 100 µM (inactive)
U-251
  GI50: > 100 µM (inactive)
KM12
  GI50: > 100 µM (inactive)
SK-MEL-28
  GI50: > 100 µM (inactive)
SK-MEL-5
  GI50: > 100 µM (inactive)
DU-145
  GI50: > 100 µM (inactive)
SNB-75
  GI50: 68.4 µM (inactive)
A498
  GI50: > 100 µM (inactive)
HCT-15
  GI50: > 100 µM

## O=C1Cc2c(-c3ccccc3)cc(-c3ccc4ccccc4c3)nc2-c2ccccc2N1
SNB-19
  GI50: 3.06 µM (inactive)
ACHN
  GI50: 3.72 µM (inactive)
T47D
  GI50: 18 µM (inactive)
Hs-578T
  GI50: 2.96 µM (inactive)
MDA-MB-231
  GI50: 5.79 µM (inactive)
MCF7
  GI50: 13.9 µM (inactive)
TK-10
  GI50: 12.3 µM (inactive)
RXF 393
  GI50: 2.9 µM (inactive)
MOLT-4
  GI50: > 100 µM (inactive)
LOX IMVI
  GI50: 16.7 µM (inactive)
HOP-92
  GI50: 4.05 µM (inactive)
COLO 205
  GI50: 31.9 µM (inactive)
U-251
  GI50: 16.4 µM (inactive)
KM12
  GI50: 4.89 µM (inactive)
SK-MEL-28
  GI50: > 100 µM (inactive)
SK-MEL-5
  GI50: 4.74 µM (inactive)
DU-145
  GI50: 34.5 µM (inactive)
SNB-75
  GI50: 0.307 µM (active)
A498
  GI50: 12.7 µM (inactive)
HCT-15
  GI50: 37.8 µM

From ChEMBL document CHEMBL1201862, “PubChem BioAssay data set” (2004)
